Data taken from BindingDB's records for doi:10.1016/j.bmc.2020.115544 (Duquesne University, 2020).

Experiments:
[1] = Inhibition of GARFTase in human KB cells expressing RFC/FRalpha/PCFT assessed as reduction in cell growth after 96 hrs by Cell-Titer Blue assay
[2] = Inhibition of GARFTase in human KB cells expressing RFC/FRalpha/PCFT assessed as reduction in cell growth after 96 hrs in presence of folic acid by Cell-Titer Blue assay

Compound	IC50 [1]	IC50 [2]
Nc1nc2[nH]c(CCNc3ccc(C(=O)N[C@@H](CCC(=O)O)C(=O)O)cc3)cc2c(=O)[nH]1	0.00032 µM	0.666 µM
Nc1nc2[nH]c(CCCN(C=O)c3ccc(C(=O)N[C@@H](CCC(=O)O)C(=O)O)cc3)cc2c(=O)[nH]1	0.013 µM	> 1 µM
Nc1nc2[nH]c(CCCN(C(=O)C(F)(F)F)c3ccc(C(=O)N[C@@H](CCC(=O)O)C(=O)O)cc3)cc2c(=O)[nH]1	0.0054 µM	> 1 µM
CC(=O)N(CCCc1cc2c(=O)[nH]c(N)nc2[nH]1)c1ccc(C(=O)N[C@@H](CCC(=O)O)C(=O)O)cc1	0.04 µM	> 1 µM

Second part, the molecule after the results:

IC50 [1]	IC50 [2]	Compound
0.00095 µM	> 1 µM	Nc1nc2[nH]c(CCCNc3ccc(C(=O)N[C@@H](CCC(=O)O)C(=O)O)cc3)cc2c(=O)[nH]1
0.0025 µM	> 1 µM	Nc1nc2[nH]c(CCCOc3ccc(C(=O)N[C@@H](CCC(=O)O)C(=O)O)cc3)cc2c(=O)[nH]1
0.0003 µM	0.757 µM	Nc1nc2[nH]c(CCCSc3ccc(C(=O)N[C@@H](CCC(=O)O)C(=O)O)cc3)cc2c(=O)[nH]1
